Tests used:
Assay in all cases: relative viability (nuclei count vs DMSO), 5 days (fraction); higher = more cells survive
ALW-II-49-7 + Crizotinib = compound: Cc1ccc(C(=O)Nc2cccc(C(F)(F)F)c2)cc1Nc1cncc(C(N)=O)c1 [ALW-II-49-7] + C[C@@H](Oc1cc(-c2cnn(C3CCNCC3)c2)cnc1N)c1c(Cl)ccc(F)c1Cl [Crizotinib] (partner 1 µM)
Summary of the method: (§1)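 Lung cancer cell lines were pin-tool dosed in 1536-well plates on the day after seeding, with either a lone drug or a fixed anchor-drug dose plus five library-drug doses (not always all listed) in √10 steps. Nuclei were counted on 4× images after 5 days. Relative viability is the ratio of treated-well to vehicle-well nuclei counts, with each value a median of duplicate plates.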

XMD13-2 + Tozasertib = compound: C1CC1C(=O)NC2=NNC3=C2C=CC(=C3)C4=CC(=CC=C4)C(=O)NC5CC5 [XMD13-2] + Cc1cc(Nc2cc(N3CCN(C)CC3)nc(Sc3ccc(NC(=O)C4CC4)cc3)n2)n[nH]1 [Tozasertib] (partner 0.1 µM)
Summary of the method: as §1

Dasatinib + Vorinostat = compound: Cc1nc(Nc2ncc(C(=O)Nc3c(C)cccc3Cl)s2)cc(N2CCN(CCO)CC2)n1 [Dasatinib] + O=C(CCCCCCC(=O)Nc1ccccc1)NO [Vorinostat] (partner 1 µM)
Summary of the method: as §1

ALW-II-49-7 + Bortezomib = compound: Cc1ccc(C(=O)Nc2cccc(C(F)(F)F)c2)cc1Nc1cncc(C(N)=O)c1 [ALW-II-49-7] + CC(C)C[C@H](NC(=O)[C@H](Cc1ccccc1)NC(=O)c1cnccn1)B(O)O [Bortezomib] (partner 0.002 µM)
Summary of the method: as §1

Cell Line | relative viability (ALW-II-49-7 + Crizotinib; first compound 0.08 µM) | relative viability (ALW-II-49-7 + Crizotinib; first compound 0.253 µM) | relative viability (ALW-II-49-7 + Crizotinib; first compound 0.8 µM) | relative viability (ALW-II-49-7 + Crizotinib; first compound 2.53 µM) | relative viability (ALW-II-49-7 + Crizotinib; first compound 8 µM) | relative viability (XMD13-2 + Tozasertib; first compound 0.05 µM) | relative viability (XMD13-2 + Tozasertib; first compound 0.1581 µM) | relative viability (XMD13-2 + Tozasertib; first compound 0.5 µM) | relative viability (XMD13-2 + Tozasertib; first compound 1.581 µM) | relative viability (XMD13-2 + Tozasertib; first compound 5 µM) | relative viability (Dasatinib + Vorinostat; first compound 0.005 µM) | relative viability (Dasatinib + Vorinostat; first compound 0.01581 µM) | relative viability (Dasatinib + Vorinostat; first compound 0.05 µM) | relative viability (Dasatinib + Vorinostat; first compound 0.1581 µM) | relative viability (Dasatinib + Vorinostat; first compound 0.5 µM) | relative viability (ALW-II-49-7 + Bortezomib; first compound 0.08 µM) | relative viability (ALW-II-49-7 + Bortezomib; first compound 0.253 µM) | relative viability (ALW-II-49-7 + Bortezomib; first compound 0.8 µM) | relative viability (ALW-II-49-7 + Bortezomib; first compound 2.53 µM) | relative viability (ALW-II-49-7 + Bortezomib; first compound 8 µM)
NCI-H2405 | 0.928 | 0.806 | 0.832 | 0.826 | 0.68 | 0.788 | 0.645 | 0.801 | 0.707 | 0.712 | 0.838 | 0.597 | 0.427 | 0.188 | 0.227 | 1.05 | 0.886 | 1.09 | 0.954 | 0.89
NCI-H3122 | 0.309 | 0.272 | 0.271 | 0.331 | 0.307 | 0.467 | 0.395 | 0.378 | 0.377 | 0.373 | 1.04 | 0.949 | 0.986 | 1.02 | 0.614 | 1.09 | 1.06 | 1.11 | 1.08 | 1.11
PC-3 [JPC-3] | 0.854 | 0.979 | 1.05 | 1.06 | 1.01 | 0.887 | 0.911 | 0.902 | 0.908 | 0.874 | 0.86 | 0.953 | 0.787 | 0.522 | 0.475 | 0.746 | 0.777 | 0.758 | 0.862 | 0.825
PC-14 | 0.911 | 0.953 | 0.841 | 0.863 | 0.866 | 0.605 | 0.657 | 0.632 | 0.608 | 0.562 | 0.653 | 0.699 | 0.562 | 0.318 | 0.0563 | 0.88 | 0.872 | 0.83 | 0.758 | 0.857
RERF-LC-KJ | 0.831 | 0.924 | 0.992 | 0.831 | 0.741 | 0.613 | 0.515 | 0.59 | 0.466 | 0.523 | 0.667 | 0.602 | 0.585 | 0.491 | 0.416 | 0.861 | 1.36 | 1.06 | 0.813 | 1.14
SK-LU-1 | 0.863 | 0.898 | 0.988 | 0.853 | 0.584 | 0.335 | 0.338 | 0.432 | 0.309 | 0.323 | 0.686 | 0.647 | 0.473 | 0.278 | 0.246 | 0.741 | 1.25 | 1.17 | 1.06 | 0.662
SW 1573 | 0.884 | 0.747 | 0.748 | 1.1 | 0.707 | 0.196 | 0.167 | 0.155 | 0.145 | 0.354 | 0.968 |  | 0.649 | 0.538 | 0.491 | 1.01 | 0.983 | 1.14 | 1.01 | 0.959
